# Earlier results as cited in patent publication US20250339338A1, “BLOOD STORAGE CONTAINER CONTAINING AQUEOUS COMPOSITION FOR THE STORAGE OF RED BLOOD CELLS” (Hemerus Medical, LLC, priority 2013, published 2025).
# Tested on: humans
# Details: in vivo
smiles,measurement,value
"CCCCC(CC)COC(=O)c1ccccc1C(=O)OCC(CC)CCCC (stereo not shown) [DEHP, di-ethylhexyl phthalate]",adverse health effects found in studies in humans,"adverse health effects such as respiratory distress, choleostasis, and histological abnormalities of the liver"
